# According to PubChem BioAssay AID1745844 (Carcinogenic Potency Database (CPDB), 2022):
# Active and inactive are the calls of the source. No rule for the calls is given here.
# Test system: rodent lifetime carcinogenesis bioassay, tumor incidence TD50
# Assay: carcinogenic potency in animals, long-term in vivo studies, CPDB compilation (AID 1745844)
smiles,measurement,setting,value
O=NN1CCCCCCCCCCCC1,TD50,"rat, strain NZR/Gd, females, by gavage, site: liver, lesion: hepatocellular tumor, dosed 52 weeks, study length 171 weeks",10.9 mg/kg/day
same,TD50,"rat, strain NZR/Gd, females, by gavage, site: lung, lesion: several types, types named in the paper, dosed 52 weeks, study length 171 weeks",7.96 mg/kg/day
same,TD50,"rat, strain NZR/Gd, males, by gavage, site: heart, lesion: one or several types, types not named, dosed 52 weeks, study length 150 weeks",2.15 mg/kg/day
same,TD50,"rat, strain NZR/Gd, males, by gavage, site: liver, lesion: hepatocellular tumor, dosed 52 weeks, study length 150 weeks",16.8 mg/kg/day
same,TD50,"rat, strain NZR/Gd, males, by gavage, site: lung, lesion: several types, types named in the paper, dosed 52 weeks, study length 150 weeks",14.6 mg/kg/day
CC1CC(=O)O1 (stereo not given),TD50,"rat, strain Eastern Sprague-Dawley, females, by gavage, site: forestomach, lesion: squamous-cell carcinoma, dosed 70 weeks, study length 70 weeks",13.8 mg/kg/day
Cc1cccc(C)c1,TD50,"mouse, strain B6C3F1, females, by gavage, site: liver, lesion: hepatocellular adenoma + hepatocellular carcinoma + neoplastic nodule, dosed 103 weeks, study length 104 weeks",7040 mg/kg/day
same,TD50,"mouse, strain B6C3F1, females, by gavage, site: lung, lesion: alveolar/bronchiolar adenoma + alveolar/bronchiolar carcinoma, dosed 103 weeks, study length 104 weeks",5130 mg/kg/day
same,TD50,"mouse, strain B6C3F1, females, by gavage, site: thyroid gland, lesion: follicular-cell adenoma, dosed 103 weeks, study length 104 weeks",4790 mg/kg/day (inactive)
same,carcinogen call,"mouse, strain B6C3F1, males, by gavage, site: any site (literature study), lesion: several types, types named in the paper, dosed 103 weeks, study length 104 weeks",negative (inactive)
same,TD50,"mouse, strain B6C3F1, males, by gavage, site: lung, lesion: alveolar/bronchiolar adenoma + alveolar/bronchiolar carcinoma, dosed 103 weeks, study length 104 weeks",7600 mg/kg/day
same,TD50,"rat, strain Fischer 344, females, by gavage, site: any site (literature study), lesion: several types, types named in the paper, dosed 103 weeks, study length 104 weeks",1930 mg/kg/day
same,TD50,"rat, strain Fischer 344, females, by gavage, site: liver, lesion: hepatocellular adenoma + hepatocellular carcinoma + neoplastic nodule, dosed 103 weeks, study length 104 weeks",51300 mg/kg/day
same,TD50,"rat, strain Fischer 344, females, by gavage, site: mammary gland, lesion: adenoma, NOS, dosed 103 weeks, study length 104 weeks",4110 mg/kg/day (inactive)
same,TD50,"rat, strain Fischer 344, males, by gavage, site: any site (literature study), lesion: several types, types named in the paper, dosed 103 weeks, study length 104 weeks",700 mg/kg/day (inactive)
same,TD50,"rat, strain Sprague-Dawley, females, by gavage, site: all sites, lesion: lymphoma and leukemia, combined, dosed 104 weeks, study length 123 weeks",4170 mg/kg/day
same,TD50,"rat, strain Sprague-Dawley, females, by gavage, site: all sites, lesion: lymphoma and leukemia, combined, dosed 104 weeks, study length 141 weeks",5170 mg/kg/day
same,TD50,"rat, strain Sprague-Dawley, females, by gavage, site: any site (literature study), lesion: malignant tumor, dosed 104 weeks, study length 123 weeks",1870 mg/kg/day
same,TD50,"rat, strain Sprague-Dawley, females, by gavage, site: any site (literature study), lesion: malignant tumor, dosed 104 weeks, study length 141 weeks",524 mg/kg/day
same,TD50,"rat, strain Sprague-Dawley, females, by gavage, site: any site (literature study), lesion: several types, types named in the paper, dosed 104 weeks, study length 141 weeks",304 mg/kg/day
same,TD50,"rat, strain Sprague-Dawley, females, by gavage, site: ear duct, lesion: carcinoma, dosed 104 weeks, study length 123 weeks",18000 mg/kg/day
same,TD50,"rat, strain Sprague-Dawley, females, by gavage, site: head, lesion: carcinoma, dosed 104 weeks, study length 123 weeks",5620 mg/kg/day
same,TD50,"rat, strain Sprague-Dawley, females, by gavage, site: head, lesion: carcinoma, dosed 104 weeks, study length 141 weeks",2830 mg/kg/day
same,TD50,"rat, strain Sprague-Dawley, females, by gavage, site: mammary tissue, wider than the gland, lesion: carcinoma, dosed 104 weeks, study length 141 weeks",1750 mg/kg/day
same,TD50,"rat, strain Sprague-Dawley, females, by gavage, site: oral cavity, lesion: carcinoma, dosed 104 weeks, study length 123 weeks",5860 mg/kg/day
same,TD50,"rat, strain Sprague-Dawley, males, by gavage, site: Zymbal's gland, lesion: carcinoma, dosed 104 weeks, study length 141 weeks",58400 mg/kg/day
same,TD50,"rat, strain Sprague-Dawley, males, by gavage, site: all sites, lesion: lymphoma and leukemia, combined, dosed 104 weeks, study length 123 weeks",8150 mg/kg/day
same,TD50,"rat, strain Sprague-Dawley, males, by gavage, site: all sites, lesion: lymphoma and leukemia, combined, dosed 104 weeks, study length 141 weeks",4170 mg/kg/day
same,TD50,"rat, strain Sprague-Dawley, males, by gavage, site: any site (literature study), lesion: malignant tumor, dosed 104 weeks, study length 123 weeks",1820 mg/kg/day
same,TD50,"rat, strain Sprague-Dawley, males, by gavage, site: any site (literature study), lesion: malignant tumor, dosed 104 weeks, study length 141 weeks",1670 mg/kg/day
same,TD50,"rat, strain Sprague-Dawley, males, by gavage, site: any site (literature study), lesion: several types, types named in the paper, dosed 104 weeks, study length 123 weeks",4070 mg/kg/day
same,TD50,"rat, strain Sprague-Dawley, males, by gavage, site: ear duct, lesion: carcinoma, dosed 104 weeks, study length 123 weeks",18300 mg/kg/day
same,TD50,"rat, strain Sprague-Dawley, males, by gavage, site: head, lesion: carcinoma, dosed 104 weeks, study length 123 weeks",3440 mg/kg/day
same,TD50,"rat, strain Sprague-Dawley, males, by gavage, site: head, lesion: carcinoma, dosed 104 weeks, study length 141 weeks",5170 mg/kg/day
same,TD50,"rat, strain Sprague-Dawley, males, by gavage, site: oral cavity, lesion: carcinoma, dosed 104 weeks, study length 123 weeks",4440 mg/kg/day
same,TD50,"rat, strain Sprague-Dawley, males, by gavage, site: oral cavity, lesion: carcinoma, dosed 104 weeks, study length 141 weeks",5820 mg/kg/day
CN(C)NC(=O)CCC(=O)O,TD50,"mouse, strain B6C3F1, females, in feed, site: any site (literature study), lesion: several types, types named in the paper, dosed 104 weeks, study length 105 weeks",56400 mg/kg/day (inactive)
same,TD50,"mouse, strain B6C3F1, females, in feed, site: liver, lesion: hepatocellular adenoma + hepatocellular carcinoma + neoplastic nodule, dosed 104 weeks, study length 105 weeks",6820 mg/kg/day
same,TD50,"mouse, strain B6C3F1, females, in feed, site: lung, lesion: alveolar/bronchiolar adenoma + alveolar/bronchiolar carcinoma, dosed 104 weeks, study length 105 weeks",2920 mg/kg/day
same,TD50,"mouse, strain B6C3F1, males, in feed, site: any site (literature study), lesion: several types, types named in the paper, dosed 104 weeks, study length 105 weeks",1500 mg/kg/day
same,TD50,"mouse, strain B6C3F1, males, in feed, site: liver, lesion: hepatocellular adenoma + hepatocellular carcinoma + neoplastic nodule, dosed 104 weeks, study length 105 weeks",2450 mg/kg/day
same,TD50,"mouse, strain B6C3F1, males, in feed, site: liver, lesion: hepatocellular adenoma + hepatocellular carcinoma, dosed 104 weeks, study length 105 weeks",2450 mg/kg/day
same,TD50,"mouse, strain B6C3F1, males, in feed, site: liver, lesion: hepatocellular carcinoma, dosed 104 weeks, study length 105 weeks",2150 mg/kg/day
same,TD50,"mouse, strain B6C3F1, males, in feed, site: lung, lesion: alveolar/bronchiolar adenoma + alveolar/bronchiolar carcinoma, dosed 104 weeks, study length 105 weeks",3400 mg/kg/day
same,TD50,"mouse, strain Swiss albino, females, in drinking water, site: blood vessels, lesion: several types, types named in the paper, dosed 92 weeks, study length 92 weeks",1240 mg/kg/day
same,TD50,"mouse, strain Swiss albino, females, in drinking water, site: lung, lesion: several types, types named in the paper, dosed 92 weeks, study length 92 weeks",1370 mg/kg/day
same,TD50,"mouse, strain Swiss albino, males, in drinking water, site: blood vessels, lesion: several types, types named in the paper, dosed 81 weeks, study length 81 weeks",880 mg/kg/day
same,TD50,"mouse, strain Swiss albino, males, in drinking water, site: kidney, lesion: adenoma, dosed 81 weeks, study length 81 weeks",10900 mg/kg/day
same,TD50,"mouse, strain Swiss albino, males, in drinking water, site: liver, lesion: hepatoma, dosed 81 weeks, study length 81 weeks",38800 mg/kg/day (inactive)
same,TD50,"mouse, strain Swiss albino, males, in drinking water, site: lung, lesion: several types, types named in the paper, dosed 81 weeks, study length 81 weeks",1110 mg/kg/day
same,TD50,"rat, strain Fischer 344, females, in feed, site: any site (literature study), lesion: several types, types named in the paper, dosed 104 weeks, study length 105 weeks",3450 mg/kg/day
same,TD50,"rat, strain Fischer 344, females, in feed, site: liver, lesion: hepatocellular adenoma + hepatocellular carcinoma + neoplastic nodule, dosed 104 weeks, study length 105 weeks",9640 mg/kg/day
same,TD50,"rat, strain Fischer 344, females, in feed, site: lung, lesion: alveolar/bronchiolar adenoma, dosed 104 weeks, study length 105 weeks",4890 mg/kg/day
same,TD50,"rat, strain Fischer 344, females, in feed, site: uterus + uterus, endometrium, lesion: leiomyosarcoma + adenocarcinoma, NOS, dosed 104 weeks, study length 105 weeks",1840 mg/kg/day
same,TD50,"rat, strain Fischer 344, females, in feed, site: uterus, endometrium, lesion: adenocarcinoma, NOS, dosed 104 weeks, study length 105 weeks",2500 mg/kg/day
same,TD50,"rat, strain Fischer 344, females, in feed, site: uterus, lesion: leiomyosarcoma, dosed 104 weeks, study length 105 weeks",5270 mg/kg/day
same,carcinogen call,"rat, strain Fischer 344, males, in feed, site: any site (literature study), lesion: several types, types named in the paper, dosed 104 weeks, study length 105 weeks",negative (inactive)
Nc1ccc(-c2ccc(N)c(O)c2)cc1O,TD50,"mouse, strain ICR/Jcl, males, in feed, site: liver, lesion: hepatoma, dosed 65 weeks, study length 65 weeks",353 mg/kg/day
CN(N=O)c1ccc(C=Cc2ccnc3ccccc23)cc1,TD50,"rat, strain Fischer, females, in feed, site: liver, lesion: hyperplastic nodule, dosed 34 weeks, study length 52 weeks",0.468 mg/kg/day
same,TD50,"rat, strain Fischer, males, in feed, site: liver, lesion: carcinoma, dosed 34 weeks, study length 52 weeks",4.37 mg/kg/day
same,TD50,"rat, strain Fischer, males, in feed, site: liver, lesion: hyperplastic nodule, dosed 34 weeks, study length 52 weeks",1.38 mg/kg/day
COc1cc(NC(=O)C(N=Nc2ccc(-c3ccc(N=NC(C(C)=O)C(=O)Nc4cc(OC)c(Cl)cc4OC)c(Cl)c3)cc2Cl)C(C)=O)c(OC)cc1Cl (stereo not given),carcinogen call,"mouse, strain NMRI, both sexes, in feed, site: any site (literature study), lesion: one or several types, types not named, dosed 104 weeks, study length 104 weeks",negative (inactive)
same,TD50,"rat, strain Sprague-Dawley, both sexes, in feed, site: any site (literature study), lesion: one or several types, types not named, dosed 104 weeks, study length 104 weeks",3560 mg/kg/day (inactive)
CC(COc1ccccc1)N(CCCl)Cc1ccccc1 (stereo not given),TD50,"mouse, strain B6C3F1, females, i.p., site: abdominal cavity, lesion: sarcoma, NOS, dosed 52 weeks, study length 84 weeks",5.85 mg/kg/day
same,TD50,"mouse, strain B6C3F1, females, i.p., site: any site (literature study), lesion: several types, types named in the paper, dosed 52 weeks, study length 84 weeks",3.08 mg/kg/day
same,TD50,"mouse, strain B6C3F1, males, i.p., site: abdominal cavity, lesion: sarcoma, NOS, dosed 51 weeks, study length 83 weeks",4.95 mg/kg/day
same,TD50,"mouse, strain B6C3F1, males, i.p., site: any site (literature study), lesion: several types, types named in the paper, dosed 51 weeks, study length 83 weeks",2.17 mg/kg/day
same,TD50,"mouse, strain B6C3F1, males, i.p., site: liver, lesion: hepatocellular adenoma + hepatocellular carcinoma + neoplastic nodule, dosed 51 weeks, study length 83 weeks",5.84 mg/kg/day
same,TD50,"mouse, strain B6C3F1, males, i.p., site: lung, lesion: alveolar/bronchiolar adenoma + alveolar/bronchiolar carcinoma, dosed 51 weeks, study length 83 weeks",63 mg/kg/day
same,TD50,"rat, strain Sprague-Dawley, females, i.p., site: any site (literature study), lesion: several types, types named in the paper, dosed 52 weeks, study length 83 weeks",1.34 mg/kg/day
same,TD50,"rat, strain Sprague-Dawley, females, i.p., site: peritoneum, lesion: sarcoma, NOS, dosed 52 weeks, study length 83 weeks",2.36 mg/kg/day
same,TD50,"rat, strain Sprague-Dawley, males, i.p., site: any site (literature study), lesion: several types, types named in the paper, dosed 52 weeks, study length 83 weeks",0.555 mg/kg/day
same,TD50,"rat, strain Sprague-Dawley, males, i.p., site: peritoneum, lesion: sarcoma, NOS, dosed 52 weeks, study length 83 weeks",0.71 mg/kg/day
C=CCN(N=O)C(N)=O,TD50,"rat, strain Fischer 344, females, by gavage, site: forestomach, lesion: one or several types, types not named, dosed 30 weeks, study length 104 weeks",0.476 mg/kg/day
same,TD50,"rat, strain Fischer 344, females, by gavage, site: mammary gland, lesion: adenocarcinoma, dosed 30 weeks, study length 104 weeks",0.601 mg/kg/day
same,TD50,"rat, strain Fischer 344, females, by gavage, site: uterus, lesion: several types, types named in the paper, dosed 30 weeks, study length 104 weeks",1.87 mg/kg/day
same,TD50,"rat, strain Fischer 344, males, by gavage, site: Zymbal's gland, lesion: one or several types, types not named, dosed 30 weeks, study length 104 weeks",0.541 mg/kg/day
same,TD50,"rat, strain Fischer 344, males, by gavage, site: colon, lesion: one or several types, types not named, dosed 30 weeks, study length 104 weeks",0.541 mg/kg/day
same,TD50,"rat, strain Fischer 344, males, by gavage, site: forestomach, lesion: one or several types, types not named, dosed 30 weeks, study length 104 weeks",0.266 mg/kg/day
same,TD50,"rat, strain Fischer 344, males, by gavage, site: lung, lesion: several types, types named in the paper, dosed 30 weeks, study length 104 weeks",0.421 mg/kg/day
